Target: Hypoxia-inducible factor 1-alpha (Homo sapiens, UniProt Q16665)
Test: Inhibition of HIF-1alpha in human Hep3B cells cotransfected with pGL3-HRE-luciferase plasmid after 24 hrs by dual-luciferase reporter assay

Hypoxia-inducible factor 1-alpha, sequence (Q16665 whole entry): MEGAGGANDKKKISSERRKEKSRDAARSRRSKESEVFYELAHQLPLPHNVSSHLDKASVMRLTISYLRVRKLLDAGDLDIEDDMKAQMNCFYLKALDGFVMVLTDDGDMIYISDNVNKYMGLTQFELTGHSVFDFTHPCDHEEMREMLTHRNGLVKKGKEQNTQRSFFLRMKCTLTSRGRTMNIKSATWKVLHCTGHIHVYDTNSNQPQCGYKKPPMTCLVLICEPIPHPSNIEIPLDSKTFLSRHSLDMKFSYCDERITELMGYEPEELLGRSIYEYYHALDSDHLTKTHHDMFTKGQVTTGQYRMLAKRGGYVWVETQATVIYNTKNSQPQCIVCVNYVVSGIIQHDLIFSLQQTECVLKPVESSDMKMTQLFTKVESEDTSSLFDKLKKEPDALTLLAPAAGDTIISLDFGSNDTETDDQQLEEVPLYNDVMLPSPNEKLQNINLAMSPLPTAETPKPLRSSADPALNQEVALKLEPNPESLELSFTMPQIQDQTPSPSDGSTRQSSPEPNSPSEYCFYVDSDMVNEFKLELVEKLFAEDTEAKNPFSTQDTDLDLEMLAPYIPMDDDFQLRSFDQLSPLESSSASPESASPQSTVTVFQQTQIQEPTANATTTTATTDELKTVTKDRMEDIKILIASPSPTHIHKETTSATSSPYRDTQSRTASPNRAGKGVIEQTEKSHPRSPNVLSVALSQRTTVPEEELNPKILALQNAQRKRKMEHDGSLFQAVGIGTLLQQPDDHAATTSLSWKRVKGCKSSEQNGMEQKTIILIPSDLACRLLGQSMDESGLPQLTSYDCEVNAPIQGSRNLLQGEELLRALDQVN

CC1(C)Oc2cc3oc(-c4cc(O)cc(O)c4)cc3cc2CC1O (stereo unspecified) [Moracin P]
IC50: 0.65 nM

— BindingDB's records for doi:10.1016/j.ejmech.2014.11.047 (Dongguk University-Seoul, 2015)
